Reference: a compilation of properties of binary mixtures (doi:10.1016/j.molliq.2016.08.084)

Assay: xn = mol fraction of the nth substance listed
Details: 101 kPa

CCCC[n+]1ccn(C)c1.F[B-](F)(F)F + O
viscosity [mPa·s]
Details | 293.15 K | 298.15 K | 303.15 K | 313.15 K | 323.15 K | 333.15 K | 343.15 K | 353.15 K | 363.15 K | 373.15 K
x2 = 0 | 133.5 | – | 78.8 | 50.52 | 34.52 | – | 18.69 | 14.54 | 11.64 | –
x2 = 0.034 | – | 88.8 | 69.8 | 45.58 | 31.56 | 22.98 | 17.44 | 13.67 | – | 9.06
x2 = 0.0615 | – | – | – | 41.37 | – | 21.4 | 16.34 | 12.87 | – | –
x2 = 0.1135 | 81.4 | – | 51.7 | – | 25.01 | – | 14.45 | – | 9.39 | 7.83
x2 = 0.2063 | 56.3 | 45.4 | 37.2 | 26.09 | 19.17 | 14.66 | 11.59 | 9.4 | 7.79 | 6.6
x2 = 0.2802 | 42 | 34.4 | 28.7 | 20.59 | 15.49 | 12.06 | 9.64 | 7.91 | – | 5.71
x2 = 0.3977 | – | – | 19 | 14.1 | 10.89 | 8.67 | 7.11 | – | 5.16 | 4.54
